Laboratory results: patent publication US4067982A, “Aryl-substituted piperazinyl-alkylamino-uracils, -uracil ethers and -uracil thioethers as therapeutics” (priority 1976, dated 1978)
Like-named read-outs stand apart in the source and are kept apart here.

Columns and labels:
mouse [1] = assay: Analgesic effect, thermal stimulation of the tail of the mouse; assay type: in vivo; details: oral, 25% retardation, read-out: Retardation of the defense reaction upon thermal stimulation of the tail of the mouse by 25%
Source text: The analgesic effect was thereby determined as the delay in the reaction upon thermal stimulation of the tail of the mouse.

mouse [2] = assay: Prolongation of sleep induced by hexobarbital, mouse; assay type: in vivo; details: ip, read-out: % prolongation of sleep induced by hexobarbital by 15 mg/kg i.p.
Description: d = Percent prolongation of the duration of sleep of mice, which were administered 75 mg/kg hexobarbital, compared with the sleep duration of controls.

mouse [3] = assay: SD50, sedation symptoms, mouse; assay type: in vivo
Source text: b = Dose, at which at an average 50% of the mice show the following symptoms: inhibition of the spontaneous motility, sadation, muscle relaxation, loss of gripping and holding ability on a horizontal wire net.

mouse [4] = assay: PD50, rotating rod, mouse; assay type: in vivo; details: ip, read-out: PD50
Source text: The centrally inhibiting effect of the piperazinyl uracils of the invention in the mouse are apparent from Table IV. […] The selective action of the compounds of the invention on the central blood pressure mechanism can be used advantageously in human therapy in the treatment of hypertonic diseases.
a = Dose, at which an average of 50% of the mice fall from a rotating rod.

mouse [5] = assay: Inhibition of the motility in the tread wheel, mouse; assay type: in vivo; details: for inhibition in vivo at 25 mg/kg: ip, 3 h, read-out: % Inhibition of the motility in the tread wheel by 25 mg/kg i.p.
in vivo = details: mouse
[6] = tested on: blood pressure of the narcotized rat; assay: Lowering of the blood pressure, narcotized rat; assay type: in vivo; parameters: unit not given here; details: 30% lowering
[7] = tested on: blood pressure increasing effect of adrenaline; assay: Inhibition of the pressor effect of adrenaline, despinalized rat; assay type: in vivo; details: iv, 0.001 mg/kg i.v. adrenaline, read-out: 50% inhibition of the press. effect after i.v. administration of adrenaline with
[8] = tested on: histamine spasm of the isolated small intestine of the guinea pig; assay: Antihistamine effect, histamine spasm of isolated small intestine
[9] = tested on: carotid sinus relaxation reflex of the narcotized cat; assay: Inhibition of the carotid sinus reflex, narcotized cat; assay type: in vivo; details: Felis catus, iv; for ED30: 30% inhibition; for ED50: 50% inhibition
[10] = tested on: blood pressure of the narcotized cat; assay: Lowering of the blood pressure, narcotized cat; assay type: in vivo; details: Felis catus, iv; for ED30: 30% lowering; for ED50: 50% lowering
[11] = tested on: blood pressure increasing effect of noradrenaline; assay: Inhibition of the pressor effect of noradrenaline, despinalized rat; assay type: in vivo; details: iv, 0.001 mg/kg i.v. noradrenaline, read-out: 50% inhibition of the press. effect after i.v. administration of noradrenaline with
Hygroscopicity = assay type: physicochemical; details: solid product
[12] = Mus musculus, po, read-out: SD50
[13] = mouse, 15 mg/kg i.p., 75 mg/kg hexobarbital, vs controls
[14] = mouse, oral, dose at which 50% show inhibition of spontaneous motility, sedation, muscle relaxation, loss of gripping, read-out: SD50 (the source's name)
[15] = mouse, i.p., dose at which an average of 50% of the mice fall from a rotating rod
[16] = mouse, 25 mg/kg i.p., 5 mg/kg d-amphetamine-sulfate, 180 minutes
[17] = mouse, 5 mg/kg d-amphetamine-sulfate, 180 minutes

SMILES: Cc1c(N(C)C)c(=O)n(-c2ccccc2)n1C [Aminophenazone, reference compound]
- ED25 (mouse [1]): 140 mg/kg

SMILES: CNC1=Nc2ccc(Cl)cc2C(c2ccccc2)=[N+]([O-])C1 [Chlordiazepoxyde, reference compound]
- change in vivo at 15 mg/kg (mouse [2]; Mus musculus): 324%
- ED50 (mouse [3]; [12]): 8 mg/kg
- ED50 (mouse [4]; Mus musculus): 38 mg/kg
- inhibition in vivo at 25 mg/kg (mouse [5]; Mus musculus): 30%

SMILES: Cc1ccc(N2CCN(CCCNc3cc(=O)n(C)c(=O)n3C)CC2)cc1 [Example 1, 1,3-Dimethyl-4-(γ-[4-(p-tolyl)-piperazinyl-(1) ]-propylamino)-uracil]
- change in vivo at 15 mg/kg (mouse [2]; [13]): 110%
- ED50 (mouse [3]; [14]): 40 mg/kg
- ED50 (mouse [4]; [15]): 28 mg/kg
- LD50 (in vivo): 200 mg/kg
- inhibition in vivo at 25 mg/kg (mouse [5]; [16]): 36%
- lowering of the blood pressure by 30% by [6]: 2.9
- ED25 (mouse [1]): 5 mg/kg
- ED50 [7]: 1.45 mg/kg

SMILES: COc1ccc(OC)c(N2CCN(CCCNc3cc(=O)n(C)c(=O)n3C)CC2)c1 [Example 3, 1,3-Dimethyl-4-(γ-[4-(2,5-dimethoxyphenyl)-piperazinyl-(1)]-propylamino)-uracil]
- LD50 (in vivo): 430 mg/kg
- lowering of the blood pressure by 30% by [6]: 1.4
- ED25 (mouse [1]): 7 mg/kg
- ED50 [7]: 2.1 mg/kg

SMILES: CCOc1ccccc1N1CCN(CCCNc2cc(=O)n(C)c(=O)n2C)CC1 [Example 5, 1,3-Dimethyl-4-(γ[4-(o-ethoxyphenyl)-piperazinyl-(1)]-propylamino)-uracil]
- change in vivo at 15 mg/kg (mouse [2]; [13]): 126%
- ED50 (mouse [3]; [14]): 98 mg/kg
- ED50 (mouse [4]; [15]): 26 mg/kg
- LD50 (in vivo): 250 mg/kg
- inhibition in vivo at 25 mg/kg (mouse [5]; [16]): 46%
- lowering of the blood pressure by 30% by [6]: 0.36
- ED25 (mouse [1]): 9 mg/kg
- ED50 [7]: 0.24 mg/kg

SMILES: COc1cccc(N2CCN(CCCNc3cc(=O)n(C)c(=O)n3C)CC2)c1 [Example 7, 1,3-Dimethyl-4-(γ-[4-(m-methoxyphenyl)-piperazinyl-(1)]-propylamino)-uracil]
- 50% inhibition of the histamine spasm of the isolated small intestine of the guinea pig [8]: 2e-08 g/mL

SMILES: COc1ccccc1N1CCN(CCCOc2cc(=O)n(C)c(=O)n2C)CC1 [Example 9, 1,3-Dimethyl-4-(γ-[4-(o-methoxyphenyl)-piperazinyl-(1)]-propyloxy)-uracil]
- change in vivo at 15 mg/kg (mouse [2]; [13]): 140%
- ED50 (mouse [3]; [14]): 30 mg/kg
- ED50 (mouse [4]; [15]): 12 mg/kg
- LD50 (in vivo): 400 mg/kg
- inhibition in vivo at 25 mg/kg (mouse [5]; [16]): 79%
- lowering of the blood pressure by 30% by [6]: > 3.4
- ED25 (mouse [1]): 10 mg/kg
- ED30 [9]: 0.17 mg/kg
- ED50 [9]: 0.26 mg/kg
- ED30 [10]: 0.03 mg/kg
- ED50 [10]: 0.14 mg/kg
- ED50 [7]: 0.15 mg/kg

SMILES: Cn1c(NCCCN2CCN(c3ccccc3)CC2)cc(=O)n(C)c1=O [Example 11, 1,3-Dimethyl-4-(γ-[4-phenyl-piperazinyl-(1)]-propylamino)-uracil]
- change in vivo at 15 mg/kg (mouse [2]; [13]): 130%
- ED50 (mouse [3]; [14]): 70 mg/kg
- ED50 (mouse [4]; [15]): 11 mg/kg
- LD50 (in vivo): 120 mg/kg
- % Inhibition of the motility in the tread wheel by 12 mg/kg i.p. (mouse [5]; [17]): 22%
- lowering of the blood pressure by 30% by [6]: 0.48
- ED50 [11]: > 2.5 mg/kg
- ED50 [7]: 1 mg/kg

SMILES: Cc1ccccc1N1CCN(CCCNc2cc(=O)n(C)c(=O)n2C)CC1 [Example 12, 1,3-Dimethyl-4-(γ-[4-(o-tolyl)-piperazinyl(1)]-propylamino)-uracil]
- change in vivo at 15 mg/kg (mouse [2]; [13]): 49%
- ED50 (mouse [3]; [14]): 87 mg/kg
- ED50 (mouse [4]; [15]): 26 mg/kg
- LD50 (in vivo): 70 mg/kg
- % Inhibition of the motility in the tread wheel by 12 mg/kg i.p. (mouse [5]; [17]): 42%
- lowering of the blood pressure by 30% by [6]: 1.0
- ED25 (mouse [1]): 6.5 mg/kg
- 50% inhibition of the histamine spasm of the isolated small intestine of the guinea pig [8]: 3e-08 g/mL
- ED30 [10]: 0.41 mg/kg
- ED50 [10]: 2.4 mg/kg
- ED50 [11]: 2.5 mg/kg
- ED50 [7]: 0.45 mg/kg

SMILES: Cn1c(NCCCN2CCN(c3ccc(Cl)cc3)CC2)cc(=O)n(C)c1=O [Example 13, 1,3-Dimethyl-4-(γ-[4-(p-chlorophenyl)-piperazinyl-(1)]-propylamino)-uracil]
- LD50 (in vivo): 70 mg/kg
- lowering of the blood pressure by 30% by [6]: > 3.4
- 50% inhibition of the histamine spasm of the isolated small intestine of the guinea pig [8]: 1e-08 g/mL
- ED50 [7]: > 2.5 mg/kg

SMILES: COc1ccccc1N1CCN(CCCNc2c(C)c(=O)n(C)c(=O)n2C)CC1 [Example 14, 1,3,5-Trimethyl-4-(γ-[4-(o-methoxyphenyl)-piperazinyl-(1)]-propylamino)-uracil]
- change in vivo at 15 mg/kg (mouse [2]; [13]): 152%
- ED50 (mouse [3]; [14]): 90 mg/kg
- ED50 (mouse [4]; [15]): 12 mg/kg
- LD50 (in vivo): 140 mg/kg
- inhibition in vivo at 25 mg/kg (mouse [5]; [16]): 21%
- lowering of the blood pressure by 30% by [6]: 0.13
- ED50 [11]: 1.2 mg/kg
- ED50 [7]: 0.045 mg/kg

SMILES: CCCCc1c(NCCCN2CCN(c3ccccc3OC)CC2)n(C)c(=O)n(C)c1=O [Example 15, 1,3-Dimethyl-4-(γ-[4-(o-methoxyphenyl)-piperazinyl-(1)]-propylamino)-5-n-butyl-uracil]
- LD50 (in vivo): 130 mg/kg
- lowering of the blood pressure by 30% by [6]: 0.36
- ED50 [11]: 2.8 mg/kg
- ED50 [7]: 0.028 mg/kg

SMILES: COc1ccccc1N1CCN(CCCNc2c([N+](=O)[O-])c(=O)n(C)c(=O)n2C)CC1 [Example 16, 1,3-dimethyl-4-(γ-[4-(o-methoxyphenyl)-piperazinyl-(1)]-propylamino)-5-nitro-uracil]
- LD50 (in vivo): 600 mg/kg
- lowering of the blood pressure by 30% by [6]: 1.6
- ED25 (mouse [1]): 10 mg/kg
- ED30 [9]: 0.6 mg/kg
- ED50 [9]: 2 mg/kg
- ED30 [10]: 0.21 mg/kg
- ED50 [10]: 1 mg/kg
- ED50 [7]: 0.17 mg/kg

SMILES: COc1ccccc1N1CCN(C(C)CNc2cc(=O)n(C)c(=O)n2C)CC1 (stereo not drawn) [Example 17, 1,3-Dimethyl-4-(β-[4-(o-methoxyphenyl)-piperazinyl-(1)]-propylamino)-uracil]
- LD50 (in vivo): 220 mg/kg
- lowering of the blood pressure by 30% by [6]: 3.0
- ED50 [11]: 2.3 mg/kg
- ED50 [7]: 0.16 mg/kg

SMILES: COc1ccccc1N1CCN(CCCNc2c(Br)c(=O)n(C)c(=O)n2C)CC1 [Example 18, 1,3-Dimethyl-4-(γ-[4-(o-methoxyphenyl)-piperazinyl-(1)]-propylamino)-5-bromo-uracil-dihydrobomide]
- ED30 [9]: 0.13 mg/kg
- ED50 [9]: 1.1 mg/kg
- ED30 [10]: 0.15 mg/kg
- ED50 [10]: > 0.5 mg/kg

SMILES: COc1ccccc1N1CCN(CCCNc2c(N=O)c(=O)n(C)c(=O)n2C)CC1 [Example 19, 1,3-Dimethyl-4-(γ-[4-(o-methoxyphenyl)-piperazinyl-(1)]-propylamino)-5-nitroso-uracil]
- hygroscopicity (Hygroscopicity): hygroscopic

SMILES: COc1ccccc1N1CCN(CCCNc2c(N)c(=O)n(C)c(=O)n2C)CC1 [Example 20, 1,3-Dimethyl-4-(γ-[4-(o-methoxyphenyl)-piperazinyl-(1)]-propylamino)-5-amino-uracil]
- change in vivo at 15 mg/kg (mouse [2]; [13]): 62%
- ED50 (mouse [3]; [14]): 80 mg/kg
- ED50 (mouse [4]; [15]): 34 mg/kg
- LD50 (in vivo): 500 mg/kg
- inhibition in vivo at 25 mg/kg (mouse [5]; [16]): 42%
- lowering of the blood pressure by 30% by [6]: 0.11
- ED30 [9]: 0.06 mg/kg
- ED50 [9]: 0.15 mg/kg
- ED30 [10]: 0.05 mg/kg
- ED50 [10]: 0.15 mg/kg
- ED50 [11]: 1.6 mg/kg
- ED50 [7]: 0.045 mg/kg

SMILES: Cc1ccccc1N1CCN(CCCNc2c(N=O)c(=O)n(C)c(=O)n2C)CC1 [Example 61, 1,3-Dimethyl-4-([4-(o-tolyl)-piperazinyl-(1)]-propyl-amino)-5-nitroso-uraci]
- LD50 (in vivo): 600 mg/kg
- lowering of the blood pressure by 30% by [6]: 0.5
- ED50 [11]: 3.7 mg/kg
- ED50 [7]: 0.39 mg/kg

SMILES: CCCC(C)(COC(N)=O)COC(N)=O [Meprobamate, reference compound]
- change in vivo at 15 mg/kg (mouse [2]; Mus musculus): 18%
- ED50 (mouse [3]; [12]): 300 mg/kg
- ED50 (mouse [4]; Mus musculus): 95 mg/kg
- inhibition in vivo at 25 mg/kg (mouse [5]; Mus musculus): 28%

SMILES: CN1CCC(OC(c2ccccc2)c2ccccc2)CC1 [Piprinhydrinate, reference compound]
- 50% inhibition of the histamine spasm of the isolated small intestine of the guinea pig [8]: 1.5e-08 g/mL
